Laboratory results reported in patent US10550105B2 (Ribon Therapeutics Inc., priority 2018, dated 2020).

Target: PARP7 (Homo sapiens (Human), UniProt Q7Z3E1)
Experiment: Enzymatic assay for inhibition of PARP7: TR-FRET displacement of biotinylated Probe A from the TIPARP active site
Assay type: binding
Settings: Table A-1
Method: 20 nL of a dose response curve of each test compound was spotted in black 384-well polystyrene proxiplates (Perkin Elmer) using a Mosquito (TTP Labtech). […] Reactions were incubated at 25° C. for an additional 30 min, then read on an Envision platereader equipped with a LANCE/DELFIA top mirror (Perkin Elmer) using excitation of 320 nm and emission of 615 nm and […] with a 90 μs delay. The ratio of the 665/615 nm emission were calculated for each well to determine the amount of complex of TIPARP and Probe A in each well. […] The Hill Coefficient is normally allowed to float but may also be fixed at 1 in a 3-parameter fit. Y is the % inhibition and x is the compound concentration.

PARP7, sequence (Q7Z3E1 whole entry): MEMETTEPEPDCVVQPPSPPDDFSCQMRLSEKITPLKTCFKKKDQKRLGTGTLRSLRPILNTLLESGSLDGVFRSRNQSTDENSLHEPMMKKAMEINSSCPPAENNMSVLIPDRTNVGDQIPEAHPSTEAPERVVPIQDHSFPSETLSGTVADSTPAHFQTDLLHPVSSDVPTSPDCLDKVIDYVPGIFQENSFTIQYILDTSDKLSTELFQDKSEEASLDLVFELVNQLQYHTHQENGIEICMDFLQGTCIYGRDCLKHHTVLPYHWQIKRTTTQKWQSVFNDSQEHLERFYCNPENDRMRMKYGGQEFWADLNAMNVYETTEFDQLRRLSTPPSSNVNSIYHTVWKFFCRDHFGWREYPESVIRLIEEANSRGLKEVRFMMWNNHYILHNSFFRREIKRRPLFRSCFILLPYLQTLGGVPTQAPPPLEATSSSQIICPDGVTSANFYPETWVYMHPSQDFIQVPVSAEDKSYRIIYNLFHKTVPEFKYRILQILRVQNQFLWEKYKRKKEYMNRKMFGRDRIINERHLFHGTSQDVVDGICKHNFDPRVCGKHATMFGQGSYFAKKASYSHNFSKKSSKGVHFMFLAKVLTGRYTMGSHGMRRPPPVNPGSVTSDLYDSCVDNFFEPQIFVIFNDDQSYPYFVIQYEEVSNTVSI

Row | Compound | IC50 [nM]
1 | O=C(C[C@@H]1CC[C@@H](COc2cn[nH]c(=O)c2C(F)(F)F)O1)N1CCN(c2ccc(C(F)(F)F)cn2)CC1 (single isomer, unassigned) [Example 545 Isomer A] | 100 to 1000
2 | O=C(C[C@H]1CC[C@@H](COc2cn[nH]c(=O)c2C(F)(F)F)O1)N1CCN(c2ccc(C(F)(F)F)cn2)CC1 (single isomer, unassigned) [Example 545 Isomer B] | 100 to 1000
3 | O=C(C[C@H]1CC[C@H](COc2cn[nH]c(=O)c2C(F)(F)F)O1)N1CCN(c2ccc(C(F)(F)F)cn2)CC1 (single isomer, unassigned) [Example 545 Isomer C] | < 100
4 | O=C(C[C@@H]1CC[C@H](COc2cn[nH]c(=O)c2C(F)(F)F)O1)N1CCN(c2ccc(C(F)(F)F)cn2)CC1 (single isomer, unassigned) [Example 545 Isomer D] | < 100
5 | O=C(C[C@@H]1CC[C@@H](CNc2cn[nH]c(=O)c2C(F)(F)F)O1)N1CCN(c2ccc(C(F)(F)F)cn2)CC1 (single isomer, unassigned) [Example 546 Isomer A] | < 100
6 | O=C(C[C@H]1CC[C@H](CNc2cn[nH]c(=O)c2C(F)(F)F)O1)N1CCN(c2ccc(C(F)(F)F)cn2)CC1 (single isomer, unassigned) [Example 546 Isomer B] | < 100
7 | O=C(C[C@H]1CC[C@@H](CNc2cn[nH]c(=O)c2C(F)(F)F)O1)N1CCN(c2ccc(C(F)(F)F)cn2)CC1 (single isomer, unassigned) [Example 546 Isomer C] | < 100
8 | O=C(C[C@@H]1CC[C@H](CNc2cn[nH]c(=O)c2C(F)(F)F)O1)N1CCN(c2ccc(C(F)(F)F)cn2)CC1 (single isomer, unassigned) [Example 546 Isomer D] | < 100
9 | O=C(C[C@@H]1CC[C@@H](COc2cn[nH]c(=O)c2C(F)(F)F)O1)N1CCN(c2ncc(Cl)cn2)CC1 (single isomer, unassigned) [Example 565 Isomer A] | 100 to 1000
10 | O=C(C[C@H]1CC[C@H](COc2cn[nH]c(=O)c2C(F)(F)F)O1)N1CCN(c2ncc(Cl)cn2)CC1 (single isomer, unassigned) [Example 565 Isomer B] | 100 to 1000
11 | O=C(C[C@H]1CC[C@@H](COc2cn[nH]c(=O)c2C(F)(F)F)O1)N1CCN(c2ncc(Cl)cn2)CC1 (single isomer, unassigned) [Example 565 Isomer C] | < 100
12 | O=C(C[C@@H]1CC[C@H](COc2cn[nH]c(=O)c2C(F)(F)F)O1)N1CCN(c2ncc(Cl)cn2)CC1 (single isomer, unassigned) [Example 565 Isomer D] | < 100
13 | O=C(C[C@@H]1CC[C@@H](COc2cn[nH]c(=O)c2Cl)O1)N1CCN(c2ncc(Cl)cn2)CC1 (single isomer, unassigned) [Example 566 Isomer A] | ≥ 1000
14 | O=C(C[C@H]1CC[C@H](COc2cn[nH]c(=O)c2Cl)O1)N1CCN(c2ncc(Cl)cn2)CC1 (single isomer, unassigned) [Example 566 Isomer B] | ≥ 1000
15 | O=C(C[C@H]1CC[C@@H](COc2cn[nH]c(=O)c2Cl)O1)N1CCN(c2ncc(Cl)cn2)CC1 (single isomer, unassigned) [Example 566 Isomer C] | 100 to 1000
16 | O=C(C[C@@H]1CC[C@H](COc2cn[nH]c(=O)c2Cl)O1)N1CCN(c2ncc(Cl)cn2)CC1 (single isomer, unassigned) [Example 566 Isomer D] | ≥ 1000
17 | O=C(C[C@H]1CC[C@@H](CNc2cn[nH]c(=O)c2C(F)(F)F)O1)N1CCN(c2ncc(Cl)cn2)CC1 (single isomer, unassigned) [Example 567 Isomer A] | < 100
18 | O=C(C[C@@H]1CC[C@H](CNc2cn[nH]c(=O)c2C(F)(F)F)O1)N1CCN(c2ncc(Cl)cn2)CC1 (single isomer, unassigned) [Example 567 Isomer B] | < 100
19 | O=C(C[C@@H]1CC[C@@H](CNc2cn[nH]c(=O)c2C(F)(F)F)O1)N1CCN(c2ncc(Cl)cn2)CC1 (single isomer, unassigned) [Example 567 Isomer C] | < 100
20 | O=C(C[C@H]1CC[C@H](CNc2cn[nH]c(=O)c2C(F)(F)F)O1)N1CCN(c2ncc(Cl)cn2)CC1 (single isomer, unassigned) [Example 567 Isomer D] | < 100
21 | O=C(C[C@@H]1CC[C@@H](CNc2cn[nH]c(=O)c2C(F)(F)F)O1)N1CCN(c2ncc(C(F)(F)F)cn2)CC1 (single isomer, unassigned) [Example 568 Isomer A] | < 100
22 | O=C(C[C@H]1CC[C@H](CNc2cn[nH]c(=O)c2C(F)(F)F)O1)N1CCN(c2ncc(C(F)(F)F)cn2)CC1 (single isomer, unassigned) [Example 568 Isomer B] | < 100
23 | COC[C@@H](COCCC(=O)N1CCN(c2ncc(C(F)(F)F)cn2)CC1)Oc1cn[nH]c(=O)c1C(F)(F)F (single isomer, unassigned) [Example 570 Isomer A] | < 100
24 | COC[C@H](COCCC(=O)N1CCN(c2ncc(C(F)(F)F)cn2)CC1)Oc1cn[nH]c(=O)c1C(F)(F)F (single isomer, unassigned) [Example 570 Isomer B] | 100 to 1000

Row | Compound | IC50 [nM]
25 | COC[C@H](CO[C@H](C)CC(=O)N1CCN(c2ccc(C#N)cn2)CC1)Oc1cn[nH]c(=O)c1C(F)(F)F (single isomer, unassigned) [Example 571 Isomer A] | < 100
26 | COC[C@@H](CO[C@@H](C)CC(=O)N1CCN(c2ccc(C#N)cn2)CC1)Oc1cn[nH]c(=O)c1C(F)(F)F (single isomer, unassigned) [Example 571 Isomer B] | 100 to 1000
27 | COC[C@H](CO[C@H](C)CC(=O)N1CCN(c2ccc(C#N)cn2)CC1)Oc1cn[nH]c(=O)c1C(F)(F)F (single isomer, unassigned) [Example 571 Isomer C] | ≥ 1000
28 | COC[C@@H](CO[C@H](C)CC(=O)N1CCN(c2ccc(C#N)cn2)CC1)Oc1cn[nH]c(=O)c1C(F)(F)F (single isomer, unassigned) [Example 571 Isomer D] | 100 to 1000
29 | N#Cc1ccc(N2CCN(C(=O)CCO[C@H]3CCC[C@@H]3Oc3cn[nH]c(=O)c3C(F)(F)F)CC2)nc1 (single isomer, unassigned) [Example 572 Isomer A] | < 100
30 | N#Cc1ccc(N2CCN(C(=O)CCO[C@@H]3CCC[C@H]3Oc3cn[nH]c(=O)c3C(F)(F)F)CC2)nc1 (single isomer, unassigned) [Example 572 Isomer B] | 100 to 1000
31 | N#Cc1ccc(N2CCN(C(=O)CCO[C@@H](CO)COc3cn[nH]c(=O)c3C(F)(F)F)CC2)nc1 (single isomer, unassigned) [Example 573 Isomer A] | < 100
32 | N#Cc1ccc(N2CCN(C(=O)CCOC[C@@H](CO)Oc3cn[nH]c(=O)c3C(F)(F)F)CC2)nc1 (single isomer, unassigned) [Example 573 Isomer B] | < 100
33 | N#Cc1ccc(N2CCN(C(=O)CCOC[C@H](CO)Oc3cn[nH]c(=O)c3C(F)(F)F)CC2)nc1 (single isomer, unassigned) [Example 573 Isomer C] | < 100
34 | N#Cc1ccc(N2CCN(C(=O)CCO[C@H](CO)COc3cn[nH]c(=O)c3C(F)(F)F)CC2)nc1 (single isomer, unassigned) [Example 573 Isomer D] | < 100
35 | O=C(C[C@@H]1CC[C@@H](COc2cn[nH]c(=O)c2C(F)(F)F)O1)N1CCN(c2ncc(C(F)(F)F)cn2)CC1 (single isomer, unassigned) [Example 574 Isomer A] | 100 to 1000
36 | O=C(C[C@H]1CC[C@H](COc2cn[nH]c(=O)c2C(F)(F)F)O1)N1CCN(c2ncc(C(F)(F)F)cn2)CC1 (single isomer, unassigned) [Example 574 Isomer B] | 100 to 1000
37 | O=C(C[C@@H]1CC[C@@H](COc2cn[nH]c(=O)c2Cl)O1)N1CCN(c2ncc(C(F)(F)F)cn2)CC1 (single isomer, unassigned) [Example 575 Isomer A] | ≥ 1000
38 | O=C(C[C@H]1CC[C@H](COc2cn[nH]c(=O)c2Cl)O1)N1CCN(c2ncc(C(F)(F)F)cn2)CC1 (single isomer, unassigned) [Example 575 Isomer B] | ≥ 1000
39 | C[C@H](CC(=O)N1CCN(c2ccc(C#N)cn2)CC1)OC[C@H](C)Oc1cn[nH]c(=O)c1C(F)(F)F (single isomer, unassigned) [Example 576 Isomer A] | < 100
40 | C[C@@H](CC(=O)N1CCN(c2ccc(C#N)cn2)CC1)OC[C@H](C)Oc1cn[nH]c(=O)c1C(F)(F)F (single isomer, unassigned) [Example 576 Isomer B] | < 100
41 | C[C@@H](COCCC(=O)N1CCN(c2ncc(Cl)cn2)CC1)Oc1cn[nH]c(=O)c1Cl (single isomer, unassigned) [Example 577 Isomer A] | < 100
42 | C[C@@H](COc1cn[nH]c(=O)c1Cl)OCCC(=O)N1CCN(c2ncc(Cl)cn2)CC1 (single isomer, unassigned) [Example 577 Isomer B] | < 100
43 | C[C@@H](COCCC(=O)N1CCN(c2ncc(C(F)(F)F)cn2)CC1)Oc1cn[nH]c(=O)c1Cl (single isomer, unassigned) [Example 578 Isomer A] | < 100
44 | N#Cc1ccc(N2CCN(C(=O)C[C@@H]3CC[C@@H](COc4cn[nH]c(=O)c4C(F)(F)F)O3)CC2)nc1 (single isomer, unassigned) [Example 580 Isomer A] | 100 to 1000
45 | N#Cc1ccc(N2CCN(C(=O)C[C@H]3CC[C@H](COc4cn[nH]c(=O)c4C(F)(F)F)O3)CC2)nc1 (single isomer, unassigned) [Example 580 Isomer B] | 100 to 1000
46 | N#Cc1ccc(N2CCN(C(=O)C[C@H]3CC[C@@H](CNc4cn[nH]c(=O)c4C(F)(F)F)O3)CC2)nc1 (single isomer, unassigned) [Example 581 Isomer A] | < 100
47 | N#Cc1ccc(N2CCN(C(=O)C[C@@H]3CC[C@@H](CNc4cn[nH]c(=O)c4C(F)(F)F)O3)CC2)nc1 (single isomer, unassigned) [Example 581 Isomer B] | < 100
